From PMC11050823, “The Cyclic Imine Core Common to the Marine Macrocyclic Toxins Is Sufficient to Dictate Nicotinic Acetylcholine Receptor Antagonism” (Marine Drugs, 2024) come the findings set out here.

The assay relates to Torpedo muscle-type α1_2βγδ nAChR. Description: Manual TEVC recording of ACh-evoked currents in Xenopus oocytes micro-transplanted with Torpedo electrocyte membranes. Type of assay: cell-based, Torpedo marmorata. Particulars: from IC50 values. The source says:
Functional analysis of the (±)-4 racemate and (+)-4 R and (−)-4 S enantiomers used either manual or automated two-electrode voltage-clamp (TEVC) recordings on Xenopus laevis oocytes at −60 mV holding membrane potential. The oocytes were either micro-transplanted with Torpedo α1_2βγδ-enriched electrocyte membranes or transfected with human α7 or α4β2-encoding cDNAs. When applied alone (see Experimental Procedures), none of the three spiroimines induced nAChR channel opening, thereby discarding any agonistic activity toward these nAChR subtypes. Instead, when applied together with ACh at its EC50 concentration for each nAChR subtype, all three spiroimines clearly behaved as nicotinic antagonists, whose potency depended on the receptor subtype examined (Figure 2; Table 1).
The sources for live animals and biological materials, the procedures for nAChR microtransplantation and expression in oocytes, and the procedures for manual (α1_2βγδ nAChR) and automated (α7 and α4β2 nAChRs) TEVC recording are detailed in Appendix C. […] Then, the oocyte was perfused for 45 s with the tested spiroimine at a given concentration, immediately followed by the co-application of ACh and the spiroimine at the same concentrations and times as indicated above. The oocyte was washed with Ringer’s solution, and then recovery of the ACh-evoked current was recorded.
The concentration–inhibition curves were analyzed as previously detailed using the equation I = Imax [L]^nH/(EC50^nH + [L]^nH) (Equation (1)), where I is the measured agonist-evoked current, [L] is the agonist concentration, EC50 is the agonist concentration that evoked half the maximal current (I^max), and nH is the Hill coefficient. For antagonist inhibition, current (I) values were normalized to the I^max value recorded from the same oocyte to yield the fractional (%) response data. IC50 values were established from the concentration–response curves by fitting to the equation F = 1/[1 + ([X]/IC50)^nH] (Equation (2)), where F is the fractional response obtained in the presence of the inhibitor at concentration [X], and IC50 is the inhibitor concentration reducing the ACh-evoked amplitude by half. Data analysis was performed without constraints as Log[spiroimine] versus response (three parameters), with a Hill slope ~1. Statistical significance of differences between the control and test values was assessed using either the two-tailed Student’s “t” test or the Kolmogorov–Smirnov two-sample test and p < 0.05.
Torpedo membranes containing α1_2βγδ nAChR were microtransplanted into the oocyte cytoplasm by microinjecting a membrane suspension (50 nL at 2.5 µg/µL, i.e., 125 ng total protein, in 5 mM glycine) with an electronic micro-injector (Nanoliter2000 Micro4 Controller, World Precision Instruments Inc., Hertfordshire, UK) mounted on a microscope. Human α7 and α4β2 nAChRs were expressed through microinjection, into the oocyte nucleus, of α7 mRNA and of a 1:1 (w/w) mixture of α4 and β2 cDNAs (a ratio favoring expression of the α4_3β2_2 population over the α4_2β2_3 population) (50 nL at 1 µg/µL) in a pRc/CMV expression vector (Invitrogen). Oocytes were maintained at 18 °C and TEVC recordings were performed 1–4 days later in a room with controlled temperature (20 °C).
Manual TEVC on α1_2βγδ nAChR oocytes was carried out using an OC-725B amplifier (Warner Instrument Corp., Hamden, CT, USA). Voltage and current borosilicate glass microelectrodes were filled with KCl 3 M and had 0.5–1.5 MΩ tip resistances. For data acquisition and recording, a pCLAMP-9/Digidata-1322A system (Molecular Devices, San Jose, CA, USA) was used. The oocyte recording chamber of 300 μL was superfused at a high rate (8–12 mL.min^−1) with a modified oocyte Ringer’s solution made of HEPES 5 mM pH 7.4, NaCl 100 mM, KCl 2.8 mM, and BaCl2 0.3 mM, where BaCl2 substitution to the original CaCl2 prevents secondary activation of a Ca^2+-dependent Cl^− current. […]

The structures appear in SMILES notation.

With `CC1=NCCC[C@]12CCCCC21OCCO1` [Spiroimine (+)-4 R, 7-methyl-1,4-dioxa-8-azadispiro[4.0.5.4]pentadec-7-ene], the “selectivity for the α1_2βγδ nAChR compared with the α4β2 subtype” value was found to be 25 fold and the “selectivity for the α1_2βγδ nAChR compared with the α7 subtype” value was found to be 13 fold.
